Assay: Test 3: effect of each of primary ingredients on blood ethanol concentration in rats
Assay type: in vivo, rat
Details: pueraria flower 0.28, phaseoli 0.39, pinelliae 0.09, fructose 1.2 g/kg
Protocol: The 50 g of pueraria flower was finely chopped and extracted with 11 of water at 100° C. for 2.5 hours. The extract was filtered and lyophilized in a freeze dryer. The 10.7 g of the powder was obtained.
The phaseoli radiati semen and pinelliae tuber were extracted and lyophilized in the same manner as described for puerariae flos. The 14.6 g and 7 g of powder were obtained from phaseoli radiati semen and pinelliae tuber, respectively.
The powder of pueraria flower, phaseoli radiati semen, pinelliae tuber, and fructose were dissolved in an adquate volume of water and administered to rats fasted 18 to 24 hours at a dose of 0.28 g, 0.39 g, 0.09 g and 1.2 g/kg body weight, respectively. The rats were treated in the same manner as Test 2.

Question: With O=C(CO)[C@@H](O)[C@H](O)[C@H](O)CO [Fructose] as the molecule, how does the “Alcohol concentration in blood” value (1 hr after 3 g/kg ethanol) read?
Answer: 1.984 g/L

Question: And the “Alcohol concentration in blood” value (2 hr after 3 g/kg ethanol)?
Answer: 1.654 g/L

Question: And the “Alcohol concentration in blood” value (4 hr after 3 g/kg ethanol)?
Answer: 0.724 g/L

Question: What about the “Alcohol concentration in blood” value (6 hr after 3 g/kg ethanol) of the same molecule?
Answer: 0.325 g/L
